Laboratory results reported in US8546579B2, “Bicycloheteroaryl compounds as P2X7 modulators and uses thereof” (Evotec (US) Inc., priority 2006, dated 2013).

Each compound was assayed against T1, P2X7 receptor (Homo sapiens, UniProt Q99572) (assay: IL-1β release assay in differentiated THP-1 cells stimulated with BzATP (Example 9)). Conditions: 0.1 μM compound; differentiated THP-1 cells, BzATP 250 uM; "*" class symbols; read-out: IL-1β % Inhib. ("*" symbols: at 0.1 μM).
T1 construct: host or cells: THP-1 cells differentiated with LPS and IFN-γ
T1 sequence (Q99572 1-595): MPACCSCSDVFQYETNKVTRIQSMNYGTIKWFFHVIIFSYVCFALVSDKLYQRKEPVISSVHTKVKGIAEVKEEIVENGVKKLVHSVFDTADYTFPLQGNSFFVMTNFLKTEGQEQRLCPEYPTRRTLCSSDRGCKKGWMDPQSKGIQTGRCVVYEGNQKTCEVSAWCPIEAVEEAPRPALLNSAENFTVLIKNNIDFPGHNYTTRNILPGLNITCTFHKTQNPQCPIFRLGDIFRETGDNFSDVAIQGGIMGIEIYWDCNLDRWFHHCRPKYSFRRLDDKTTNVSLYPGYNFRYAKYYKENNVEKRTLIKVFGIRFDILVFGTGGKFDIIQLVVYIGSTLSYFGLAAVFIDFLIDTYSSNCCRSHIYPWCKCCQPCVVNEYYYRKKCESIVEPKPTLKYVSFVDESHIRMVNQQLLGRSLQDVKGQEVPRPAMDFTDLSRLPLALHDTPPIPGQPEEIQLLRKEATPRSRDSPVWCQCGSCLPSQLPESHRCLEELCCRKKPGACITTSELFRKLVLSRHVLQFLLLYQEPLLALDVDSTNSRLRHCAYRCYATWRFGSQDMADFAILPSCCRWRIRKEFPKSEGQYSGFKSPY
Type: cell-based
Parameters: inhibition: dose or concentration left out as unconfirmed
Description: THP-1 cells (ATCC Cat # 285-IF-100) are plated in 96 well plates at a concentration of 200,000 cells per well and allowed to differentiate in RPMI-1640 media (ATCC Cat # 30-2001) containing 10% FBS, 100 IU/mL penicillin, 100 ug/mL streptomycin, 100 ng/mL LPS and 100 ng/mL IFN-γ for 16 hours. Following differentiation, the cells are treated for an additional 2 hours in RPMI-1640 media containing 100 IU/mL penicillin, 100 ug/mL streptomycin and fresh LPS at 100 ng/mL. The cells are then pretreated for 30 minutes with the compound of interest at the appropriate concentration in RPMI media containing 100 IU/mL penicillin, 100 ug/mL streptomycin. Following the pretreatment 2′,3′-O-(4-benzoylbenzoyl)-adenosine 5′-triphosphate (Sigma Aldrich Cat # B6396) is added to a final concentration of 250 uM and the cells are incubated for an additional 45 minutes. 30 uL of cell supernatant is then collected and IL-1β levels determined via ELISA (R&D systems Cat. # HSLB50) according to manufacturer's recommendations using the Tecan Safire plate reader. Background adjusted IL-1β levels of drug treated and non-treated cells are used to calculate the percent inhibition.
The compounds set forth in Table 1 were tested for activity in a cellular model as described herein. Specifically, cells were pretreated with differing amounts of the compound under test and released IL-1β determined as in Example 9, above. Measurements were made and IC50 values, presented in Table 2, below, were determined by fitting the data to a four parameter logistic equation using GraphPad Prism software (GraphPad Software, Inc). The equation may be expressed by the following formula: Y=Bottom+(Top−Bottom)/(1+10^((Log EC50−X)*HillSlope)) Where X is the logarithm of concentration, Y is the response and Y starts at Bottom and goes to Top with a sigmoid shape.

Row | inhibition at 0.1 µM | Compound
1 | 0 to 25% | Cc1cc(C(=O)Nc2cccc3c(=O)n(Cc4ccc(OC(F)(F)F)cc4)ccc23)ccc1F [Compound 1602]
2 | 0 to 25% | CCOc1ccccc1CC(=O)Nc1cccc2c(=O)n(Cc3ccc(OC(F)(F)F)cc3)ccc12 [Compound 1604]

Same assay, conditions: 0.1 μM compound; differentiated THP-1 cells, BzATP 250 uM; '*' class symbols; read-out: IL-1β % Inhib. (asterisk classes, 0.1 μM)

Row | inhibition at 0.1 µM | Compound
3 | 26 to 50% | COCCn1ccc2c(NC(=O)CCc3ccccc3C)cccc2c1=O [Compound 1062]
4 | 0 to 25% | Cc1ccccc1CCC(=O)Nc1cccc2c(=O)n(CC(C)(C)C)ccc12 [Compound 1048]
5 | 0 to 25% | O=C(Nc1cccc2c(=O)n(CCN3CCOCC3)ccc12)c1cc(Cl)cc(Cl)c1 [Compound 1195]
6 | 0 to 25% | CCOc1ccc(C(=O)Nc2cccc3c(=O)n(CCOC)ccc23)c(O)c1 [Compound 1059]

Same assay, conditions: 0.1 μM compound; differentiated THP-1 cells, BzATP 250 uM; symbols * to ****; read-out: IL-1β % Inhib. (asterisk symbols: at 0.1 μM)

Row | inhibition at 0.1 µM | Compound
7 | 0 to 25% | CCOc1ccc(C(=O)Nc2cccc3c(=O)n(CCN4CCOCC4)ccc23)cc1 [Compound 1198]

Same assay, conditions: 0.3 μM compound; differentiated THP-1 cells, BzATP 250 uM; '+' class symbols; read-out: IL-1β % Inhib. @ 0.3 μM

Row | inhibition at 0.3 µM | Compound
8 | 0 to 25% | Cc1ccccc1C(=O)Nc1cccc2c(=O)n(CC3CCOCC3)ccc12 [Compound 1085]
9 | ≥ 76% | Cc1ccc(CCC(=O)Nc2cccc3c(=O)n(CCN(C)C)ccc23)cc1 [Compound 1002]
10 | 0 to 25% | CC(C(=O)Nc1cccc2c(=O)n(CC3CCOCC3)ccc12)c1ccccc1 (stereo not drawn) [Compound 1093]
11 | 0 to 25% | Cc1ccc(C)c(CC(=O)Nc2cccc3c(=O)n(CCN4CCOCC4)ccc23)c1 [Compound 1042]
12 | 0 to 25% | COc1cccc(CCC(=O)Nc2cccc3c(=O)n(CC4CCOCC4)ccc23)c1 [Compound 1027]
13 | 0 to 25% | Cc1ccccc1CC(=O)Nc1cccc2c(=O)n(CCN(C)C)ccc12 [Compound 1157]
14 | 0 to 25% | COc1ccccc1CC(=O)Nc1cccc2c(=O)n(CC3CCOCC3)ccc12 [Compound 1099]
15 | 0 to 25% | CCOc1ccc(CC(=O)Nc2cccc3c(=O)n(CCN(C)C)ccc23)cc1 [Compound 1160]
16 | 0 to 25% | CCOc1cccc(C(=O)Nc2cccc3c(=O)n(CCOC)ccc23)c1 [Compound 1068]
17 | 0 to 25% | Cc1c(Cl)cccc1C(=O)Nc1cccc2c(=O)n(CCN(C)C)ccc12 [Compound 1172]
18 | 0 to 25% | O=C(Cc1ccc2c(c1)OCO2)Nc1cccc2c(=O)n(CC3CCOCC3)ccc12 [Compound 1110]
19 | 0 to 25% | Cc1cc(C)cc(CC(=O)Nc2cccc3c(=O)n(CCN(C)C)ccc23)c1 [Compound 1173]
20 | 0 to 25% | COc1ccc(CC(=O)Nc2cccc3c(=O)n(CC4CCOCC4)ccc23)cc1OC [Compound 1103]
21 | 0 to 25% | O=C(Nc1cccc2c(=O)n(CC3CCOCC3)ccc12)c1cc2ccccc2o1 [Compound 1109]
22 | 0 to 25% | O=C(Nc1cccc2c(=O)n(CCN3CCOCC3)ccc12)c1ccc(Cl)cc1Cl [Compound 1189]
23 | 0 to 25% | O=C(CCc1ccccc1Cl)Nc1cccc2c(=O)n(Cc3cccnc3)ccc12 [Compound 1079]
24 | 0 to 25% | CC(C)Cc1ccc(C(=O)Nc2cccc3c(=O)n(CC4CCOCC4)ccc23)cc1 [Compound 1136]

Same assay, conditions: 0.3 μM compound; differentiated THP-1 cells, BzATP 250 uM; symbols + to ++++; read-out: IL-1β % Inhib. @ 0.3 μM

Row | Compound | inhibition at 0.3 µM
25 | COCCn1ccc2c(NC(=O)CC3CC4CC[C@H]3C4)cccc2c1=O (stereo partly drawn) [Compound 1326] | ≥ 76%
26 | COc1ccc(OC)c(CC(=O)Nc2cccc3c(=O)n(CCN4CCOCC4)ccc23)c1 [Compound 1207] | 0 to 25%
27 | COCCn1ccc2c(NC(=O)[C@@]34C[C@@H]5C[C@@H](C[C@@H]3C5)C4)cccc2c1=O [Compound 1327] | 0 to 25%
28 | COc1cc(CC(=O)Nc2cccc3c(=O)n(Cc4cccnc4)ccc23)cc(OC)c1 [Compound 1360] | 26 to 50%
29 | Cn1ccc2c(NC(=O)c3ccc4c(c3)OCCCO4)cccc2c1=O [Compound 1305] | 0 to 25%
30 | COc1ccc(CC(=O)Nc2cccc3c(=O)n(CC(C)(C)C)ccc23)cc1C [Compound 1281] | 26 to 50%
31 | COCCn1ccc2c(NC(=O)Cc3cc(OC)cc(OC)c3)cccc2c1=O [Compound 1322] | 0 to 25%
32 | O=C(Cc1ccc2c(c1)OCO2)Nc1cccc2c(=O)n(CCN3CCOCC3)ccc12 [Compound 1217] | 0 to 25%
33 | COc1ccc(C(=O)Nc2cccc3c(=O)n(CCN4CCOCC4)ccc23)cc1C [Compound 1240] | 26 to 50%
34 | COc1ccccc1CC(=O)Nc1cccc2c(=O)n(CCN3CCOCC3)ccc12 [Compound 1206] | 0 to 25%
35 | Cc1cc(C(=O)Nc2cccc3c(=O)n(CC(C)(C)C)ccc23)ccc1F [Compound 1279] | 0 to 25%

Next, values leading:

Row | inhibition at 0.3 µM | Compound
36 | 0 to 25% | Cc1ccc(Cl)cc1C(=O)Nc1cccc2c(=O)n(Cc3cccnc3)ccc12 [Compound 1368]
37 | 0 to 25% | O=C(Nc1cccc2c(=O)n(Cc3cccnc3)ccc12)c1cc2ccccc2o1 [Compound 1358]
38 | 0 to 25% | CC(C)(C)Cn1ccc2c(NC(=O)c3cccc4ccccc34)cccc2c1=O [Compound 1249]
39 | 0 to 25% | COc1ccc(CC(=O)Nc2cccc3c(=O)n(C)ccc23)cc1 [Compound 1299]
40 | 26 to 50% | COCCn1ccc2c(NC(=O)c3ccc(C)c(Cl)c3)cccc2c1=O [Compound 1324]
41 | 0 to 25% | COc1cccc(CC(=O)Nc2cccc3c(=O)n(Cc4cccnc4)ccc23)c1 [Compound 1353]
42 | 0 to 25% | COc1ccc(CC(=O)Nc2cccc3c(=O)n(CC(C)(C)C)ccc23)cc1 [Compound 1260]

Same assay, conditions: THP-1; read-out: IL-1β % Inhib.

Row | Compound | inhibition
43 | COc1ccccc1CCC(=O)Nc1cccc2c(=O)n(CCCN3CCCC3=O)ccc12 [Compound 1518] | 0 to 25%
44 | COc1cc(CC(=O)Nc2cccc3c(=O)n(CCCN4CCCC4=O)ccc23)cc(OC)c1 [Compound 1528] | 0 to 25%
45 | O=C(Nc1cccc2c(=O)n(CCCN3CCCC3=O)ccc12)c1cc2ccccc2o1 [Compound 1526] | 0 to 25%
46 | O=C(Nc1cccc2c(=O)n(CCCN3CCCC3=O)ccc12)c1ccccc1Cl [Compound 1504] | 51 to 75%
47 | Cc1ccc(C(=O)Nc2cccc3c(=O)n(CCCN4CCCC4=O)ccc23)cc1Cl [Compound 1530] | 26 to 50%

Further lines, results first:

Row | inhibition | Compound
48 | 0 to 25% | O=C(CC1CC2CC[C@H]1C2)Nc1cccc2c(=O)n(Cc3ccc(OC(F)(F)F)cc3)ccc12 (stereo partly drawn) [Compound 1593]
49 | 0 to 25% | O=C(Cc1ccccc1F)Nc1cccc2c(=O)n(Cc3ccc(OC(F)(F)F)cc3)ccc12 [Compound 1575]
50 | 0 to 25% | O=C(Nc1cccc2c(=O)n(CCCN3CCCC3=O)ccc12)c1ccc(-c2ccccc2)cc1 [Compound 1515]
51 | 26 to 50% | COc1ccc(CC(=O)Nc2cccc3c(=O)n(Cc4ccc(OC(F)(F)F)cc4)ccc23)cc1 [Compound 1583]
52 | 0 to 25% | Cc1ccccc1CCC(=O)Nc1cccc2c(=O)n(Cc3cccnc3)ccc12 [Compound 1406]
53 | 0 to 25% | CC(C(=O)Nc1cccc2c(=O)n(Cc3ccc(OC(F)(F)F)cc3)ccc12)c1ccccc1 (stereo not drawn) [Compound 1570]
54 | 0 to 25% | O=C(Nc1cccc2c(=O)n(Cc3ccc(OC(F)(F)F)cc3)ccc12)c1ccc2ccccc2c1 [Compound 1574]
55 | 0 to 25% | COc1ccc(CCC(=O)Nc2cccc3c(=O)n(Cc4ccc(OC(F)(F)F)cc4)ccc23)cc1 [Compound 1572]
56 | 0 to 25% | CCOc1ccc(CC(=O)Nc2cccc3c(=O)n(Cc4ccc(OC(F)(F)F)cc4)ccc23)cc1 [Compound 1584]

Same assay, conditions: THP-1 cells, BzATP-stimulated IL-1β release, four parameter logistic fit

Row | IC50 | Compound
57 | 72.3 nM | Cc1ccc(CCC(=O)Nc2cccc3c(=O)n(CCN(C)C)ccc23)cc1 [Compound 1002]
